Test results reported in ChEMBL document CHEMBL4359906, “Design and synthesis of new N-terminal fatty acid modified-antimicrobial peptide analogues with potent in vitro biological activity” (Eur J Med Chem, 2019).
Converted amounts (≈) assume the structure as drawn. The source made the active and inactive calls. The calls are words filed in the database; no cut-off is given here. Where a SMILES comes first, the peptide text is derived from it. Bridges are numbered along the chain shown (N, C = ends). [ ]: non-standard residue; d: D form. The star is where a group is joined. X1 = CC[C@H](C)CCCCC(=O)*; Dab = NCC[C@H](N)C(=O)O

Key:
[1] = test system: Escherichia coli; experiment: Antibacterial activity against Escherichia coli ATCC 25922 after 18 hrs by CLSI based broth microdilution method; assay type: functional
[2] = test system: Escherichia coli; experiment: Antibacterial activity against Escherichia coli ATCC 43837 after 18 hrs by CLSI based broth microdilution method; assay type: functional
[3] = test system: Klebsiella pneumoniae; experiment: Antibacterial activity against Klebsiella pneumoniae ATCC 700603 after 18 hrs by CLSI based broth microdilution method; assay type: functional
[4] = test system: Pseudomonas aeruginosa; experiment: Antibacterial activity against Pseudomonas aeruginosa ATCC 27853 after 18 hrs by CLSI based broth microdilution method; assay type: functional
[5] = test system: Staphylococcus aureus; experiment: Antibacterial activity against Staphylococcus aureus ATCC 25923 after 18 hrs by CLSI based broth microdilution method; assay type: functional; conditions: ATCC 25923, 18 h
[6] = test system: Staphylococcus aureus; experiment: Antibacterial activity against methicillin-resistant Staphylococcus aureus 936 after 18 hrs by CLSI based broth microdilution method; assay type: functional; conditions: Staphylococcus aureus, 936, 18 h
[7] = test system: Bacillus subtilis; experiment: Antibacterial activity against Bacillus subtilis ATCC 23857 after 18 hrs by CLSI based broth microdilution method; assay type: functional; conditions: ATCC 23857, 18 h
[8] = test system: Escherichia coli; experiment: Antibacterial activity against Escherichia coli ATCC 25922 after 18 hrs in presence of NaCl by CLSI based broth microdilution method (reference value: 4 microM); assay type: functional; conditions: ATCC 25922, 18 h
[9] = test system: Escherichia coli; experiment: Antibacterial activity against Escherichia coli ATCC 25922 after 18 hrs in presence of KCl by CLSI based broth microdilution method (reference value: 4 microM); assay type: functional; conditions: ATCC 25922, 18 h
[10] = test system: Escherichia coli; experiment: Antibacterial activity against Escherichia coli ATCC 25922 after 18 hrs in presence of MgCl2 by CLSI based broth microdilution method (reference value: 4 microM); assay type: functional; conditions: ATCC 25922, 18 h
[11] = test system: Escherichia coli; experiment: Antibacterial activity against Escherichia coli ATCC 25922 after 18 hrs in presence of FeCl3 by CLSI based broth microdilution method (reference value: 4 microM); assay type: functional; conditions: ATCC 25922, 18 h
[12] = test system: Staphylococcus aureus; experiment: Antibacterial activity against Staphylococcus aureus ATCC 25923 after 18 hrs in presence of NaCl by CLSI based broth microdilution method (reference value: 16 microM); assay type: functional; conditions: ATCC 25923, 18 h
[13] = test system: Staphylococcus aureus; experiment: Antibacterial activity against Staphylococcus aureus ATCC 25923 after 18 hrs in presence of KCl by CLSI based broth microdilution method (reference value: 16 microM); assay type: functional; conditions: ATCC 25923, 18 h
[14] = test system: Staphylococcus aureus; experiment: Antibacterial activity against Staphylococcus aureus ATCC 25923 after 18 hrs in presence of MgCl2 by CLSI based broth microdilution method (reference value: 16 microM); assay type: functional; conditions: ATCC 25923, 18 h
[15] = test system: Staphylococcus aureus; experiment: Antibacterial activity against Staphylococcus aureus ATCC 25923 after 18 hrs in presence of FeCl3 by CLSI based broth microdilution method (reference value: 16 microM); assay type: functional; conditions: ATCC 25923, 18 h
[16] = test system: Escherichia coli; experiment: Disruption of membrane integrity in Escherichia coli ATCC 25922 assessed as membrane damage by measuring PI fluorescence at 4 times of MIC incubated for 1 hr by PI dye based flow cytometric analysis (reference value: 1.35%); assay type: functional
[17] = test system: Escherichia coli; experiment: Disruption of membrane integrity in Escherichia coli ATCC 25922 assessed as membrane damage by measuring PI fluorescence at 2 times of MIC incubated for 1 hr by PI dye based flow cytometric analysis (reference value: 1.35%); assay type: functional
[18] = test system: Escherichia coli; experiment: Induction of membrane disruption in Escherichia coli ATCC 25922 assessed as rough membrane surface at 4 times of MIC after 2 hrs by SEM analysis; assay type: functional, organism-based
[19] = test system: Escherichia coli; experiment: Induction of membrane disruption in Escherichia coli ATCC 25922 assessed as corrugated membrane surface at 4 times of MIC after 2 hrs by SEM analysis; assay type: functional, organism-based
[20] = test system: Escherichia coli; experiment: Induction of membrane disruption in Escherichia coli ATCC 25922 assessed as degeneration in membrane at 4 times of MIC after 2 hrs by SEM analysis; assay type: functional, organism-based
[21] = test system: DNA; experiment: Binding affinity to Escherichia coli ATCC 25922 genomic DNA at 4 x MIC after 30 mins by agarose gel electrophoresis; assay type: nucleic-acid assay
[22] = test system: Escherichia coli; experiment: Ratio of antibacterial activity against Escherichia coli ATCC 25922 in presence of NaCl to antibacterial activity against Escherichia coli ATCC 25922; assay type: functional
[23] = test system: Escherichia coli; experiment: Ratio of antibacterial activity against Escherichia coli ATCC 25922 in presence of KCl to antibacterial activity against Escherichia coli ATCC 25922; assay type: functional
[24] = test system: Escherichia coli; experiment: Ratio of antibacterial activity against Escherichia coli ATCC 25922 in presence of MgCl2 to antibacterial activity against Escherichia coli ATCC 25922; assay type: functional
[25] = test system: Escherichia coli; experiment: Ratio of antibacterial activity against Escherichia coli ATCC 25922 in presence of FeCl3 to antibacterial activity against Escherichia coli ATCC 25922; assay type: functional
[26] = test system: Staphylococcus aureus; experiment: Ratio of antibacterial activity against Staphylococcus aureus ATCC 25923 in presence of NaCl to antibacterial activity against Staphylococcus aureus ATCC 25923; assay type: functional
[27] = test system: Staphylococcus aureus; experiment: Ratio of antibacterial activity against Staphylococcus aureus ATCC 25923 in presence of KCl to antibacterial activity against Staphylococcus aureus ATCC 25923; assay type: functional
[28] = test system: Staphylococcus aureus; experiment: Ratio of antibacterial activity against Staphylococcus aureus ATCC 25923 in presence of MgCl2 to antibacterial activity against Staphylococcus aureus ATCC 25923; assay type: functional
[29] = test system: Staphylococcus aureus; experiment: Ratio of antibacterial activity against Staphylococcus aureus ATCC 25923 in presence of FeCl3 to antibacterial activity against Staphylococcus aureus ATCC 25923; assay type: functional
[30] = test system: Staphylococcus aureus; experiment: Antibiofilm activity against Staphylococcus aureus ATCC 25923 at 1 to 2 times of MIC after 24 hrs by crystal violet staining based assay; assay type: functional, organism-based
[31] = test system: Escherichia coli; experiment: Induction of membrane disruption in Escherichia coli ATCC 25922 assessed as fracture in membrane at 4 times of MIC after 2 hrs by SEM analysis; assay type: functional, organism-based
[32] = test system: Escherichia coli; experiment: Induction of ROS generation in Escherichia coli ATCC 25922; assay type: functional, organism-based
[33] = Klebsiella pneumoniae, 700603, 18 h

CC1(C)S[C@@H]2[C@H](NC(=O)Cc3ccccc3)C(=O)N2[C@H]1C(=O)O [PENICILLIN G]
MIC ([1]; ATCC 25922, 18 h): 64 µM (≈ 21.4 µg/mL) | MIC ([2]; ATCC 43837, 18 h): 8 µM (≈ 2.68 µg/mL) | MIC [3, 33]: > 128 µM | MIC ([4]; ATCC 27853, 18 h): > 128 µM | MIC [5]: < 1 µM | MIC [6]: 32 µM (≈ 10.7 µg/mL) | MIC [7]: < 1 µM

CN[C@H](CC(C)C)C(=O)N[C@H]1C(=O)N[C@@H](CC(N)=O)C(=O)N[C@H]2C(=O)N[C@H]3C(=O)N[C@H](C(=O)N[C@H](C(=O)O)c4cc(O)cc(O)c4-c4cc3ccc4O)[C@H](O)c3ccc(c(Cl)c3)Oc3cc2cc(c3O[C@@H]2O[C@H](CO)[C@@H](O)[C@H](O)[C@H]2O[C@H]2C[C@](C)(N)[C@H](O)[C@H](C)O2)Oc2ccc(cc2Cl)[C@H]1O [VANCOMYCIN]
MIC [1]: inactive | MIC [2]: inactive | MIC [3]: inactive | MIC [4]: inactive | MIC [5]: < 1 µM | MIC [6]: < 1 µM | MIC [7]: < 1 µM

CCCC(=O)NCC(=O)N[C@@H](CC(C)C)C(=O)N[C@@H](CC(C)C)C(=O)N[C@H](CCCCN)C(=O)N[C@@H](CCCNC(=N)N)C(=O)N[C@H](C(=O)N[C@H](CCCCN)C(=O)N[C@H](C(=O)N[C@@H](CC(C)C)C(=O)N[C@@H](CC(C)C)C(N)=O)[C@@H](C)O)[C@@H](C)CC
MIC ([1]; ATCC 25922, 18 h): > 128 µM | MIC ([2]; ATCC 43837, 18 h): > 128 µM | MIC [3, 33]: > 128 µM | MIC ([4]; ATCC 27853, 18 h): 128 µM (≈ 157 µg/mL) | MIC [5]: > 128 µM | MIC [6]: > 128 µM | MIC [7]: 128 µM (≈ 157 µg/mL)

CC[C@H](C)[C@H](NC(=O)[C@H](CCCNC(=N)N)NC(=O)[C@@H](CCCCN)NC(=O)[C@H](CC(C)C)NC(=O)[C@H](CC(C)C)NC(=O)CN)C(=O)N[C@H](CCCCN)C(=O)N[C@H](C(=O)N[C@@H](CC(C)C)C(=O)N[C@@H](CC(C)C)C(N)=O)[C@@H](C)O (H-GLL[dK]RI[dK]TLL-NH2)
MIC ([1]; ATCC 25922, 18 h): > 128 µM | MIC ([2]; ATCC 43837, 18 h): > 128 µM | MIC [3, 33]: > 128 µM | MIC ([4]; ATCC 27853, 18 h): 64 µM (≈ 73.8 µg/mL) | MIC [5]: > 128 µM | MIC [6]: > 128 µM | MIC [7]: 64 µM (≈ 73.8 µg/mL)

CCCCCC(=O)NCC(=O)N[C@@H](CC(C)C)C(=O)N[C@@H](CC(C)C)C(=O)N[C@H](CCCCN)C(=O)N[C@@H](CCCNC(=N)N)C(=O)N[C@H](C(=O)N[C@H](CCCCN)C(=O)N[C@H](C(=O)N[C@@H](CC(C)C)C(=O)N[C@@H](CC(C)C)C(N)=O)[C@@H](C)O)[C@@H](C)CC
MIC ([1]; ATCC 25922, 18 h): 128 µM (≈ 160 µg/mL) | MIC ([2]; ATCC 43837, 18 h): > 128 µM | MIC [3, 33]: > 128 µM | MIC ([4]; ATCC 27853, 18 h): 32 µM (≈ 40.1 µg/mL) | MIC [5]: > 128 µM | MIC [6]: > 128 µM | MIC [7]: 16 µM (≈ 20 µg/mL)

CC[C@H](C)CCCCC(=O)N[C@@H](CCN)C(=O)N[C@H](C(=O)N[C@@H](CCN)C(=O)N[C@H]1CCNC(=O)[C@H]([C@@H](C)O)NC(=O)[C@H](CCN)NC(=O)[C@H](CCN)NC(=O)[C@H](CC(C)C)NC(=O)[C@@H](Cc2ccccc2)NC(=O)[C@H](CCN)NC1=O)[C@@H](C)O (X1-[Dab]T[Dab][Dab][Dab][dF]L[Dab][Dab]T; lactam 4-C)
MIC ([1]; ATCC 25922, 18 h): 4 µM (≈ 4.81 µg/mL) | MIC ([2]; ATCC 43837, 18 h): 2 µM (≈ 2.41 µg/mL) | MIC [3, 33]: 8 µM (≈ 9.63 µg/mL) | MIC ([4]; ATCC 27853, 18 h): 2 µM (≈ 2.41 µg/mL) | MIC [5]: 16 µM (≈ 19.3 µg/mL) | MIC [6]: 16 µM (≈ 19.3 µg/mL) | MIC [7]: 8 µM (≈ 9.63 µg/mL) | MIC [8]: 16 µM | MIC [9]: 16 µM | MIC [10]: 8 µM | MIC [11]: 4 µM | MIC [12]: 64 µM | MIC [13]: 16 µM | MIC [14]: 32 µM | MIC [15]: 16 µM | Activity [16]: 8.49% | Activity [17]: 3.47% | Activity [18]: Active | Activity [19]: Active | Activity [20]: Active | Activity [21]: inactive | Ratio [22]: 2 - 4 | Ratio [23]: 2 - 4 | Ratio [24]: 2 - 4 | Ratio [25]: 2 - 4 | Ratio [26]: 2 - 4 | Ratio [27]: 2 - 4 | Ratio [28]: 2 - 4 | Ratio [29]: 2 - 4 | inhibition [30]: Active | Activity [31]: Active | Activity [32]: inactive
